Results on 1 compound are retold here after patent US20240294570A1, “ENZYMATICALLY FORMING INTRANUCLEAR PEPTIDE ASSEMBLIES FOR SELECTIVELY KILLING INDUCED PLURIPOTENT STEM CELLS” (BRANDEIS UNIVERSITY, priority 2021, published 2024).

Data set [1] is described as follows: Critical micelle concentration (CMC) measurement with pyrene probe. The class given is physicochemical. Here is the method:
Critical Micelle Concentration ((MC) Measurement: The CMCs were determined using pyrene as the fluorescent probe. Different concentrations of compounds were prepared in pyrene-saturate solutions. The fluorescence spectra of pyrene solutions with different concentration compounds were obtained. The intensity ratio of 378 nm/393 nm (I378/I393) was determined by a Synergy H1 hybrid multi-mode microplate reader. Plot I378/I393 against the concentrations of compounds. The concentration at the turning point is the CMC.

For another data set, the system named is ALP. Briefly: Dephosphorylation rate measurement (LC-MS). The procedure:
The reaction mixtures were analyzed with LC-MS.
Thus, the conversion of the phosphopentapeptides to their corresponding peptides was examined over time.

For orientation: half-life means how long it takes for the measured level to halve. A high value points to slow loss.

Non-standard residues stand in square brackets, D forms with d. Residues, ends and D or L forms follow the SMILES beside them. *: point of attachment. pY = N[C@@H](Cc1ccc(OP(=O)(O)O)cc1)C(=O)O; NBD = O=[N+]([O-])c1ccc(*)c2nonc12; βAla = NCCC(=O)O

With `CC(C)C[C@H](NC(=O)CCNc1ccc([N+](=O)[O-])c2nonc12)C(=O)N[C@@H](CC(C)C)C(=O)N[C@@H](CC(C)C)C(=O)N[C@@H](CC(C)C)C(=O)N[C@@H](Cc1ccc(OP(=O)(O)O)cc1)C(=O)O` [compound 5, NBD-βA-LLLLpY] ({NBD-βAla}-LLLL[pY]-OH), in data set [1], the “critical micelle concentration (CMC)” value came out at 86.1 µM. Further, the “fraction hydrolyzed by ALP” value in the data set on ALP (100 μM, 0.1 U/mL ALP, time point 40 minutes) is “about 24%”. The final dephosphorylation ratio with ALP (400 μM, 0.1 U/mL ALP) is recorded as 69.1%. Further, the dephosphorylation ratio in the data set with ALP (400 μM, 0.5 U/mL ALP, after 5 hours of incubation) was determined as 93.8%. The “fraction turned into 6” value with ALP (0.1 U/mL ALP, after 1 hour of incubation) turned out to be 32.7%; in the data set with ALP (0.1 U/mL ALP, after 2 hours of incubation), 49.6%. In the data set with ALP (alkaline phosphatase (ALP) in PBS, half-life of dephosphorylation, 100 μM, 0.5 U/mL ALP), this compound registered a half-life at 100 μM of 27.3 min. This compound had a half-life at 200 μM in the data set on ALP (alkaline phosphatase (ALP) in PBS, half-life of dephosphorylation, 200 μM, 0.5 U/mL ALP) of 21.6 min. Further, the half-life at 400 μM with ALP (alkaline phosphatase (ALP) in PBS, half-life of dephosphorylation, 400 μM, 0.1 U/mL ALP) came out at 122 min; with ALP (alkaline phosphatase (ALP) in PBS, half-life of dephosphorylation, 400 μM, 0.5 U/mL ALP), 30.6 min.
